The values that follow come from EP0939649B1, “ADDITIVE, IN PARTICULAR IN THE FORM OF AN EMULSION CONTAINING A TRIVALENT METAL CATION AND VACCINE COMPOSITION CONTAINING SAME” (priority 1996, dated 1998).

Data set [1] deals with sérum albumine bovine (BSA). Briefly: Immunostimulant effect of adjuvants: IgG1/IgG2a antibody response in mice vaccinated subcutaneously with BSA antigen. The data set is classed as in vivo, souris. Conditions: 21 days after vaccination, 100 µl s.c. per mouse, 10 µg BSA, salts at optimal concentration; for réponse lgG2a: represents cellular response; for réponse lgG1: represents humoral response. The procedure: Ces compositions thérapeutiques comprennent, à titre d'antigène de la sérum albumine bovine (BSA), Grade V, Sigma.
Ces compositions thérapeutiques (dose/souris) d'un volume de 100 µl mises en oeuvre comprenaient 10µg d'antigène et ont été injectées par voie sous-cutanée.
Les résultats ont été obtenus 21 jours après vaccination:
Les réponses IgG 1 sont représentatives de la réponse humorale,
Les réponses IgG 2a sont représentatives de la réponse cellulaire.

A short description of data set [2]: Local reactions (lesions and granulomas) at the injection site after subcutaneous injection in mice. The data set is classed as in vivo, souris. The note with it: 8 days after s.c. injection, 1000 µl, 10 µg BSA. The procedure: On a injecté à différents lots comprenant chacun 5 souris, une composition thérapeutique d'un volume de 1000 µl, comprenant 10 µg d'antigène (BSA), par voie sous-cutanée. On a évalué les réactions locales (lésions et granulomes) 8 jours après injection.

For the compound `[OH][Al]([OH])[OH]` [AlOH, hydroxyde d'Aluminium], in data set [1], the “réponse lgG2a” value is reported as under 1000 and the “réponse lgG1” value amounted to 8000.

Consider `CC(=O)[O-].[Al+3].[OH-].[OH-]` [C2H5AlO4 (forme soluble), acétate d'Aluminium soluble (C2H5AlO4)], for which, in data set [1], the “réponse lgG2a” value is recorded as 8000. Further, the “réponse lgG1” value in data set [1] is 64000. Further, the “réactions locales (lésions et granulomes)” value in data set [2] (souris 1), in data set [2] (souris 2), in data set [2] (souris 3) and in data set [2] (souris 5) was 0 throughout.

`CC(=O)[O-].CC(=O)[O-].[Al+3].[OH-]` [C4H7AlO5 (forme insoluble), forme insoluble d'acétate d'Aluminium (C4H7AlO5)]: in data set [1], the “réponse lgG2a” value is under 1000 and the “réponse lgG1” value is given as under 1000.

Turning to phosphate d'Aluminium [AlPO4], in data set [1], the “réponse lgG2a” value is on record as under 1000 and the “réponse lgG1” value is under 1000.

For the compound salicylate d'Aluminium, in data set [1], the “réponse lgG2a” value was 6000 and the “réponse lgG1” value is 48000.
